Results reported in patent US9637483B2, “Heterocyclic compound” (TAKEDA PHARMACEUTICAL COMPANY LIMITED, priority 2013, dated 2017).

Experiments:
Assay type in all cases: biochemical
TYK2 = target: T1, TYK2 (Homo sapiens, UniProt P29597); assay: TYK2 enzyme inhibition test (LANCE method); details: 1 μM test compound; read-out: TYK2 enzyme inhibitory activity (%, 1 μM)
T1 construct: purchased Invitrogen
In short: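 TR-FRET (LANCE) readout: after 1 h room-temperature kinase reaction, EDTA plus 4 nM Eu-labelled anti-phosphotyrosine antibody added, signal at 665 nm (340 nm excitation). Reaction combined TYK2, ULight-JAK1 substrate and ATP, prepared at 375 ng/mL, 300 nM and 30 μM before addition, in pH 7.5 HEPES/MgCl2 buffer; enzyme-free wells define full inhibition.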

JAK1 = target: T2, JAK1 (Homo sapiens, UniProt P23458); assay: JAK1 enzyme inhibition test (LANCE method); details: 1 μM test compound; read-out: JAK1 enzyme inhibitory activity (%, 1 μM)
T2 construct: purchased Invitrogen
T2 sequence (P23458 whole entry): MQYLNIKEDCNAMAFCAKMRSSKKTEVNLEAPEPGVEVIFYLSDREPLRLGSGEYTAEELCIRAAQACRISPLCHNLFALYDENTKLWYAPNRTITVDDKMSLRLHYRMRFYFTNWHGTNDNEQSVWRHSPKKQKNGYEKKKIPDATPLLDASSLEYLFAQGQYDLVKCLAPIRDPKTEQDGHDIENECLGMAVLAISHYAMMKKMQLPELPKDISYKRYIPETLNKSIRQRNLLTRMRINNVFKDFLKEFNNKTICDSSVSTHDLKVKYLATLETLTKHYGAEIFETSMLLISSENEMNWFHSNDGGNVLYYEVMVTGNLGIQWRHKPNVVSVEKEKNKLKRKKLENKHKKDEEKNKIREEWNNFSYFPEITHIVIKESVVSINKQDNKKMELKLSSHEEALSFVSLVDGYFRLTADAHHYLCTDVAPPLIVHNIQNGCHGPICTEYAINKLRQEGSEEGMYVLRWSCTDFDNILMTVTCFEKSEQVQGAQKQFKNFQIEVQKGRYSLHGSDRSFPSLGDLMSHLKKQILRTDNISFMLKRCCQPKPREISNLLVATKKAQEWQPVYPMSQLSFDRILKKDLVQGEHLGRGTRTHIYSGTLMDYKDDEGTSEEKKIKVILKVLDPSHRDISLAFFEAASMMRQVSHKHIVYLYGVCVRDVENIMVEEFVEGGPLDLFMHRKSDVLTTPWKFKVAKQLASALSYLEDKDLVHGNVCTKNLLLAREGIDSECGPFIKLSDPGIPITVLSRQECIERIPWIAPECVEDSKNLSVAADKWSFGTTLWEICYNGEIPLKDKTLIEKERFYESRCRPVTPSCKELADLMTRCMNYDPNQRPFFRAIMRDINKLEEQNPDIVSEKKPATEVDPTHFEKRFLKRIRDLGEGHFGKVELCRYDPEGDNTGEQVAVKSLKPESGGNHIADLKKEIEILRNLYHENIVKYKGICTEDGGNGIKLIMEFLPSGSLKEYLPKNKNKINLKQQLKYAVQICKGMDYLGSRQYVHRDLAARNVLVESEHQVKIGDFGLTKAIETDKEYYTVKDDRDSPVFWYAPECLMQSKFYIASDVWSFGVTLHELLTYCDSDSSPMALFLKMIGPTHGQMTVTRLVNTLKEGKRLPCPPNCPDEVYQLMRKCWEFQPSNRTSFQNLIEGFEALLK
In short: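 Inhibition expressed against no-enzyme wells (100% inhibition), from time-resolved fluorescence at 665 nm after Eu-anti-phosphotyrosine antibody/EDTA detection. Kinase reaction ran 1 h at room temperature, pH 7.5 HEPES buffer, ULight-JAK1 substrate and ATP diluted to 300 nM and 150 μM before addition.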

JAK3 = target: T3, JAK3 (Homo sapiens, UniProt P52333); assay: JAK3 enzyme inhibition test (LANCE method); details: 1 μM test compound; read-out: JAK3 enzyme inhibitory activity (%, 1 μM)
T3 construct: purchased Invitrogen
T3 sequence (P52333 1-1124): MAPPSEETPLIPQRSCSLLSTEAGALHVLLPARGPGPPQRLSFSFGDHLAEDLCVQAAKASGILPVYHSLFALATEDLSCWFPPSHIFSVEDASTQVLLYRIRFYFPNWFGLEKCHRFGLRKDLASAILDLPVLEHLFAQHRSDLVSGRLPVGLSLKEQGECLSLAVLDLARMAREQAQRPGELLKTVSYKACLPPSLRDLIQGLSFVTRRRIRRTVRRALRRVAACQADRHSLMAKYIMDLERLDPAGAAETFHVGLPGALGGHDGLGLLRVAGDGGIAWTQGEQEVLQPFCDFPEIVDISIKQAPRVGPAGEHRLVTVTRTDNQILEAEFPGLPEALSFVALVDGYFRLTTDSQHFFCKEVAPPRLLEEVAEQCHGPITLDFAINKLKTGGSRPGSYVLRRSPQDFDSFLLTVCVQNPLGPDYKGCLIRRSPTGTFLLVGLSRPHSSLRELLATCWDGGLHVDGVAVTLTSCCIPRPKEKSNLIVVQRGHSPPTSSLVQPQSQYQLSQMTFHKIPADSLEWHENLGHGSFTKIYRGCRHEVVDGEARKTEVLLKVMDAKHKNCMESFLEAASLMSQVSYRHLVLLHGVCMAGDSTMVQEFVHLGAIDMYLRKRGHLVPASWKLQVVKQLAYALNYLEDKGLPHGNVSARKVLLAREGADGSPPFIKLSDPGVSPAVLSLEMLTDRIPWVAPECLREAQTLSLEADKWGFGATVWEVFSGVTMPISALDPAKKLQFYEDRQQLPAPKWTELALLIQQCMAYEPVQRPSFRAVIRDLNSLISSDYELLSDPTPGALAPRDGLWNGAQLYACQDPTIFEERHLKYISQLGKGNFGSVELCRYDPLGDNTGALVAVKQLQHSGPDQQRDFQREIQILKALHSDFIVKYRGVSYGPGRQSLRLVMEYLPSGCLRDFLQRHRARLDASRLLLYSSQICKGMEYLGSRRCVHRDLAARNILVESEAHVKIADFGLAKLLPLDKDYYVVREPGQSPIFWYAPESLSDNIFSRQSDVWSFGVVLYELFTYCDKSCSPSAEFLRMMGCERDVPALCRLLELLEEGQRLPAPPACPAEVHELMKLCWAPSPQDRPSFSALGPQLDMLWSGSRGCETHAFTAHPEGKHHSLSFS
In short: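 TR-FRET (LANCE) read: 1 h room-temperature reaction, EDTA quench, Eu-anti-phosphotyrosine antibody, emission 665 nm after 340 nm excitation. Added solutions held 12 ng/mL JAK3, 300 nM ULight-JAK1 substrate and 15 μM ATP (pH 7.5 HEPES). Activity expressed against no-enzyme wells defined as full inhibition.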

JAK2 = target: T4, JAK2 (Homo sapiens, UniProt O60674); assay: JAK2 enzyme inhibition test (LANCE method); details: 1 μM test compound; read-out: JAK2 enzyme inhibitory activity (%, 1 μM)
T4 construct: purchased Invitrogen
T4 sequence (O60674 whole entry): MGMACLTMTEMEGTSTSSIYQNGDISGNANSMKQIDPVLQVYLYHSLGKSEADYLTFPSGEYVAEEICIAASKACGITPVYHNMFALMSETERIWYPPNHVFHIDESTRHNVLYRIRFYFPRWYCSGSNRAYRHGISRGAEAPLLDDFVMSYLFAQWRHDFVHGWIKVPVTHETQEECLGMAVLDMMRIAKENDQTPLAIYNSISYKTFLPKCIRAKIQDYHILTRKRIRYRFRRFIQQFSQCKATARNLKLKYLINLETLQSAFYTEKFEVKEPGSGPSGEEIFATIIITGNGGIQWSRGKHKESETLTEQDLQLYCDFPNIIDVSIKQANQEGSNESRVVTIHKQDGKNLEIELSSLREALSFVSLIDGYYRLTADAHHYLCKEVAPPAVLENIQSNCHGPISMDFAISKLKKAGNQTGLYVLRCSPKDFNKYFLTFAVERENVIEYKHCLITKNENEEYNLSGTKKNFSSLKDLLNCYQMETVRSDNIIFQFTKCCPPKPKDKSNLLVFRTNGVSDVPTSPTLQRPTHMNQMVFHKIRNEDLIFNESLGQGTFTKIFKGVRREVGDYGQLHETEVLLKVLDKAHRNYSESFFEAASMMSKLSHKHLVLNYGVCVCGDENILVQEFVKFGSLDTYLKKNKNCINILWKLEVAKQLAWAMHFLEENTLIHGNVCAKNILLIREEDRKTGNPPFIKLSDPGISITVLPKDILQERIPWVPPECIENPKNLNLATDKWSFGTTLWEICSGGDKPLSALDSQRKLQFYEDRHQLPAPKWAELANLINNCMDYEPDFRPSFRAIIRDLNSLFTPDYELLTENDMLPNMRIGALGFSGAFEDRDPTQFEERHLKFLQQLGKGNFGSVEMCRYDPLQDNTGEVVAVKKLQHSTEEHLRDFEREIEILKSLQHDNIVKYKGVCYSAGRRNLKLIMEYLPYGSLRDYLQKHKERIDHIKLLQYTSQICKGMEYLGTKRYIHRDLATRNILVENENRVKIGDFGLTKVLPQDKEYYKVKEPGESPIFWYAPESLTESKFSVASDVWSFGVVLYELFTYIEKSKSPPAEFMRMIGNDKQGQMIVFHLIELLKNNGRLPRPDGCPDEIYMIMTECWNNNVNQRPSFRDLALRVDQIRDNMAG
In short: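 TR-FRET (LANCE) read-out, ex 340/em 665 nm with 100 μs delay, after 1 hr room-temperature detection with europium anti-phosphotyrosine antibody and 20 mM EDTA. The preceding 1 hr kinase reaction combined JAK2, ULight-JAK1 substrate and ATP, added as 6 ng/mL, 300 nM and 45 μM solutions; enzyme-free wells defined 100% inhibition.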

T1 sequence (P29597 whole entry): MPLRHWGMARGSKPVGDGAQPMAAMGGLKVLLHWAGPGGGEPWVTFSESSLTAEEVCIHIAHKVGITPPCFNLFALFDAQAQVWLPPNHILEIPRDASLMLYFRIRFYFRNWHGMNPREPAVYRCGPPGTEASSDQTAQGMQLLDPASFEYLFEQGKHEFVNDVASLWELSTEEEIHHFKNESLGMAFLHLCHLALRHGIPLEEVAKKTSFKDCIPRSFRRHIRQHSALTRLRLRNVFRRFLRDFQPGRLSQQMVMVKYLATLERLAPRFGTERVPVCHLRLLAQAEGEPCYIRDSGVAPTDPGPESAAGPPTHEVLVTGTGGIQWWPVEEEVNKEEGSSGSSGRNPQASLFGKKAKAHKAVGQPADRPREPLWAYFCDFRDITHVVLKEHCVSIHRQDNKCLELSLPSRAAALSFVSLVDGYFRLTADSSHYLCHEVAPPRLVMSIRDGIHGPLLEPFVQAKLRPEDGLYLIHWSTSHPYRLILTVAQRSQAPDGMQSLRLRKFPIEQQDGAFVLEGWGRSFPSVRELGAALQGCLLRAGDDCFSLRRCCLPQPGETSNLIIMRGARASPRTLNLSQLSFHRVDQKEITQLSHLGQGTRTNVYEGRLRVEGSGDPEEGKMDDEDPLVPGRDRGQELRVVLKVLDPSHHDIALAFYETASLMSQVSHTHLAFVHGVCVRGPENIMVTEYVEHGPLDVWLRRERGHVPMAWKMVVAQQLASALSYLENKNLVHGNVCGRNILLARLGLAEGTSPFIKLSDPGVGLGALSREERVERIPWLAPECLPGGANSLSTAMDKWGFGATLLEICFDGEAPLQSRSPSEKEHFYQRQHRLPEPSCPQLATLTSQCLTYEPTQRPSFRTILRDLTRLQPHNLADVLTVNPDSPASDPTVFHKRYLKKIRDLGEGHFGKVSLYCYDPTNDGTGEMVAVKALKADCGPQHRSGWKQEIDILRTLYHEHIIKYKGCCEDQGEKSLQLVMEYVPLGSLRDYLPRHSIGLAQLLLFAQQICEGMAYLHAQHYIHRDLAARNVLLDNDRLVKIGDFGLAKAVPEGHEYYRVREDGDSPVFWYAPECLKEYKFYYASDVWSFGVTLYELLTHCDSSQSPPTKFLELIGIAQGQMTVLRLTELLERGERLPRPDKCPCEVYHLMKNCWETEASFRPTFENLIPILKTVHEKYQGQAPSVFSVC

| SMILES | inhibition at 1 µM (TYK2) | inhibition at 1 µM (JAK1) | inhibition at 1 µM (JAK3) | inhibition at 1 µM (JAK2) |
| --- | --- | --- | --- | --- |
| Cn1nc(-c2cn(C(C3CC3)C3CC3)c(=O)c3c(N)n[nH]c23)cc1N1CCN2CCC[C@H]2C1 [Example 162, 3-amino-5-(dicyclopropylmethyl)-7-(5-((8aS)-hexahydropyrrolo[1,2-a]pyrazin-2(1H)-yl)-1-methyl-1H-pyrazol-3-yl)-1,5-dihydro-4H-pyrazolo[4,3-c]pyridin-4-one] | 101% | 99% | 100% | 100% |
| Cn1nc(-c2cn(C(C3CC3)C3CC3)c(=O)c3c(N)n[nH]c23)cc1N1CCN2CCC[C@@H]2C1 [Example 163, 3-amino-5-(dicyclopropylmethyl)-7-(5-((8aR)-hexahydropyrrolo[1,2-a]pyrazin-2(1H)-yl)-1-methyl-1H-pyrazol-3-yl)-1,5-dihydro-4H-pyrazolo[4,3-c]pyridin-4-one] | 101% | 100% | 100% | 100% |
| CO[C@@H]1CCN(c2cc(-c3cn(C(C4CC4)C4CC4)c(=O)c4c(N)n[nH]c34)nn2C)C1 [Example 164, 3-amino-5-(dicyclopropylmethyl)-7-(5-((3R)-3-methoxypyrrolidin-1-yl)-1-methyl-1H-pyrazol-3-yl)-1,5-dihydro-4H-pyrazolo[4,3-c]pyridin-4-one] | 101% | 99% | 100% | 99% |
| Cn1nc(-c2cn(C(C3CC3)C3CC3)c(=O)c3c(N)n[nH]c23)cc1C(F)(F)F [Example 165, 3-amino-5-(dicyclopropylmethyl)-7-(1-methyl-5-(trifluoromethyl)-1H-pyrazol-3-yl)-1,5-dihydro-4H-pyrazolo[4,3-c]pyridin-4-one] | 100% | 100% | 100% | 98% |
| Cn1nc(-c2cn(C(C3CC3)C3CC3)c(=O)c3c(N)n[nH]c23)cc1N1CC[C@H](O)C1 [Example 166, 3-amino-5-(dicyclopropylmethyl)-7-(5-((3S)-3-hydroxypyrrolidin-1-yl)-1-methyl-1H-pyrazol-3-yl)-1,5-dihydro-4H-pyrazolo[4,3-c]pyridin-4-one] | 101% | 100% | 100% | 99% |
| CO[C@H]1CCN(c2cc(-c3cn(C(C4CC4)C4CC4)c(=O)c4c(N)n[nH]c34)nn2C)C1 [Example 167, 3-amino-5-(dicyclopropylmethyl)-7-(5-((3S)-3-methoxypyrrolidin-1-yl)-1-methyl-1H-pyrazol-3-yl)-1,5-dihydro-4H-pyrazolo[4,3-c]pyridin-4-one] | 101% | 100% | 100% | 99% |
| Cn1nc(-c2cn(C(C3CC3)C3CC3)c(=O)c3c(N)n[nH]c23)cc1N1CCC[C@H]1CO [Example 168, 3-amino-5-(dicyclopropylmethyl)-7-(5-((2S)-2-(hydroxymethyl)pyrrolidin-1-yl)-1-methyl-1H-pyrazol-3-yl)-1,5-dihydro-4H-pyrazolo[4,3-c]pyridin-4-one] | 101% | 98% | 100% | 94% |
| Cn1nc(-c2cn(C(C3CC3)C3CC3)c(=O)c3c(N)n[nH]c23)cc1N1CC[C@@H](O)C1 [Example 169, 3-amino-5-(dicyclopropylmethyl)-7-(5-((3R)-3-hydroxypyrrolidin-1-yl)-1-methyl-1H-pyrazol-3-yl)-1,5-dihydro-4H-pyrazolo[4,3-c]pyridin-4-one] | 98% | 98% | 99% | 98% |
| Cn1nc(-c2cn(C(C3CC3)C3CC3)c(=O)c3c(N)n[nH]c23)cc1N1CCC(F)(F)C1 [Example 170, 3-amino-5-(dicyclopropylmethyl)-7-(5-(3,3-difluoropyrrolidin-1-yl)-1-methyl-1H-pyrazol-3-yl)-1,5-dihydro-4H-pyrazolo[4,3-c]pyridin-4-one] | 98% | 99% | 99% | 99% |
| CN(C[C@H]1CCCN1c1cc(-c2cn(C(C3CC3)C3CC3)c(=O)c3c(N)n[nH]c23)nn1C)C(=O)OC(C)(C)C [Example 171, tert-butyl(((2R)-1-(3-(3-amino-5-(dicyclopropylmethyl)-4-oxo-4,5-dihydro-1H-pyrazolo[4,3-c]pyridin-7-yl)-1-methyl-1H-pyrazol-5-yl)pyrrolidin-2-yl)methyl)methylcarbamate] | 98% | 93% | 98% | 94% |
| CNC[C@H]1CCCN1c1cc(-c2cn(C(C3CC3)C3CC3)c(=O)c3c(N)n[nH]c23)nn1C [Example 172, 3-amino-5-(dicyclopropylmethyl)-7-(1-methyl-5-((2R)-2-((methylamino)methyl)pyrrolidin-1-yl)-1H-pyrazol-3-yl)-1,5-dihydro-4H-pyrazolo[4,3-c]pyridin-4-one] | 98% | 93% | 98% | 98% |
| Cc1cc(-c2cn(C(C3CC3)C3CC3)c(=O)c3c(N)n[nH]c23)nn1C [Example 173, 3-amino-5-(dicyclopropylmethyl)-7-(1,5-dimethyl-1H-pyrazol-3-yl)-1,5-dihydro-4H-pyrazolo[4,3-c]pyridin-4-one] | 98% | 98% | 99% | 96% |
| Cn1nc(-c2cn(C(C3CC3)C3CC3)c(=O)c3c(N)n[nH]c23)cc1C(C)(C)O [Example 174, 3-amino-5-(dicyclopropylmethyl)-7-(5-(2-hydroxypropan-2-yl)-1-methyl-1H-pyrazol-3-yl)-1,5-dihydro-4H-pyrazolo[4,3-c]pyridin-4-one] | 98% | 99% | 99% | 98% |
| CC(=O)N(C)C[C@H]1CCCN1c1cc(-c2cn(C(C3CC3)C3CC3)c(=O)c3c(N)n[nH]c23)nn1C [Example 175, N-(((2R)-1-(3-(3-amino-5-(dicyclopropylmethyl)-4-oxo-4,5-dihydro-1H-pyrazolo[4,3-c]pyridin-7-yl)-1-methyl-1H-pyrazol-5-yl)pyrrolidin-2-yl)methyl)-N-methylacetamide] | 98% | 96% | 98% | 97% |
| CN(C[C@H]1CCCN1c1cc(-c2cn(C(C3CC3)C3CC3)c(=O)c3c(N)n[nH]c23)nn1C)S(C)(=O)=O [Example 176, N-(((2R)-1-(3-(3-amino-5-(dicyclopropylmethyl)-4-oxo-4,5-dihydro-1H-pyrazolo[4,3-c]pyridin-7-yl)-1-methyl-1H-pyrazol-5-yl)pyrrolidin-2-yl)methyl)-N-methylmethanesulfonamide] | 98% | 97% | 99% | 98% |
